For this assay, the target named is Leishmania donovani tyrosyl-tRNA synthetase (LdTyrRS) (Leishmania donovani, UniProt A0A3Q8ID88). The assay can be described thus: X-ray co-crystal structure at […] Å. It counts as biochemical.

pIC50: −log10 of the molar value.

The pIC50 is the negative decadic logarithm of the IC50, by convention in mol/L. Consider `Nc1ncnc2c1ncn2[C@@H]1O[C@H](COS(=O)(=O)NC(=O)[C@@H](N)Cc2ccc(O)cc2)[C@@H](O)[C@H]1O` [TyrSA, 5'-O-[N-(L-tyrosyl)sulfamoyl]adenosine], for which the negative logarithm of the IC50 (pIC50) was 9.16.

Source of the values: article PMC5484532 (Biochimie, 2017).
